In patent publication US6664297B1, “Methods for inhibition and dissolution of amyloidoses by administration of compositions comprising 2,4-dinitrophenol” (priority 2000, dated 2003):
Structures can show the parent of a compound that is named as a salt. Blank lines part the entries; values can stand above or below the compound they belong to.

Legend:
hippocampal neurons [1] = experiment: Aβ neurotoxicity in hippocampal neuron cultures, morphology by anti-Tau immunostaining; type: cell-based, rat; settings: Aβ1-42 44 μM, 72 hours
Protocol: In order to evaluate the efficacy of the phenol derivatives, control assays were also performed in the absence of the aromatic or heteroaromatic compounds described herein.
Med., 3, 1376-82, 1997) with minor modifications. […] Daily observations were carried out during this period.
Aβ1-42 (44 μM) was added to the culture medium containing neurons and incubation was continued for 72 hours. […] Furthermore, the remaining cell bodies of Aβ-treated neurons were attached to the plate, but their neurites were retracted and thin, and sometimes detached from the plate.

amyloid deposits = target: T1, amyloid deposits (Homo sapiens, UniProt P05067); experiment: Rat model of cerebral Aβ deposition (intrahippocampal co-injection); type: in vivo; settings: 3 nmol Aβ1-42 co-injected with DNP 0.76 mM into hippocampus; 8 days; n=4, p=0.05
T1 construct: purchased Bachem Inc; host or cells: synthetic peptide
T1 sequence (P05067 672-713): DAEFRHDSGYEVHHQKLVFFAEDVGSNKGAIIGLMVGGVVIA
Protocol: To evaluate the effects of nitrophenols as inhibitors of amyloid deposition in vivo, we used a rat model of cerebral Aβ deposition. Aβ was injected alone or in the presence of DNP into the left or right hippocampi of rats, respectively, and the areas occupied by amyloid deposits in either side were measured on consecutive sections stained with thioflavin S. The experimental protocol used was designed to minimize the influence of individual variability in animal response by injecting Aβ into one hemisphere and Aβ plus DNP into the other hemisphere for each individual rat.
Male adult Wistar rats (280-320 g) were anesthetized with chloropent (3.3 ml/kg) and placed into a stereotaxic frame. The left hippocampus (standard coordinates: A 5.0; L 2.0; H 6.8) was injected with 3 nmol of Aβ1-42 (from a previously diluted stock in 55 μl of PBS containing 9% DMSO). A volume of 1.5 μl was administered at a constant flow rate during a time period of 15 minutes. […] Images were analyzed with ScionImage to measure the areas occupied by amyloid aggregates.
FIG. 5A is a schematic diagram of the injection protocol and representative hippocampal sections visualized by Thioflavine-S staining or autofluorescence, as indicated. FIGS. 5B-5E show quantitative analysis of the area of amyloid deposits in consecutive hippocampal sections as described above. […]

Aβ1-42 [2] = target: T2, Aβ1-42 (Homo sapiens, UniProt P05067); experiment: Disaggregation of aggregated Aβ1-42 followed by 90° light scattering; type: biochemical; settings: for IC50: aggregated Aβ1-42, light scattering measured 1.5 hour after addition, 23° C., read-out: IC50 for disaggregation of Aβ; for inhibition at 200 µM: read-out: % decrease in light scattering
T2 construct: purchased Bachem Inc; host or cells: synthetic peptide
T2 sequence (P05067 672-713): as above
Protocol: (§1) Aβ peptides of different chain-lengths (Bachem Inc., Torrance, Calif., USA) were freshly dissolved from lyophilized powder in 50% (v/v) trifluoroethanol (TFE) in PBS. Aggregation was triggered by dilution of aliquots from the stock solution into PBS (resulting in ≦0.5% (v/v) residual TFE), and was followed as a function of time by light scattering measurements. Light scattering was measured in sealed cuvettes at 500 nm on ISS Inc. (Champaign, Ill., USA) PC1 or Hitachi F-4500 spectrofluorometers. […] Low temperature experiments were performed using a thermostated cell holder and flushing the cell compartment with N2 to avoid condensation. All results shown represent equilibrium light scattering values obtained for each sample.
Concentrated peptide stock solutions were prepared in 50% (v/v) trifluoroethanol. Aggregation was triggered by dilution in phosphate-buffered saline (PBS) and was followed by means of light-scattering measurements (FIGS. 1A, 1B, 1C), thioflavin T fluorescence (not shown) and electron microscopy (FIG. 2). Equilibrium light scattering values were used as an index of the extent of aggregation under different experimental conditions.
One class of compounds we tested were the nitrophenols. The disaggregation of Aβ1-42 by nitrophenols was determined. 3-nitrophenol (NP; O) or 2,4-dinitrophenol (DNP; □) were added to aggregated samples prepared as described above. Light scattering intensities were measured 1.5 hour after addition of the drugs. Symbols represent averages±S.D. from 3 experiments.
Further results for a series of aromatic compounds are shown in Table 1, at aromatic compound concentrations of 200 micromolar.

Aβ1-42 [3] = target: T2, Aβ1-42; experiment: Transmission electron microscopy of Aβ1-42 fibril formation; type: biochemical
Protocol: Aggregated samples were also examined by transmission electron microscopy. In this case, Aβ (22 μM) was incubated in PBS in the absence or in the presence of nitrophenols, as indicated. After 48 hours, samples were stained with 1% uranyl acetate.
Confirmation that the light scattering intensity measurements were in fact related to the formation of amyloid fibrilar aggregates was made by transmission electron microscopy analysis using uranyl acetate staining.
An Aβ1-42 sample incubated for 2 days in the presence of 20 μM DNP is shown in FIG. 2C (Magnification: 52,500×).

hippocampal neurons [4] = experiment: Cell viability of hippocampal neuron cultures by trypan blue exclusion; settings: no Aβ
Protocol: Hippocampi from 18-day-old rat embryos were dissected and cultured as previously described by Martins et al., Nat. Med., 3, 1376-82, 1997) with minor modifications. Cells were plated on glass coverslips previously coated with 1.5 μg/ml polyornithine (Sigma) in Basal Eagle's Medium (Gibco) enriched with 10% fetal calf serum (Hyclone) for the first 24 hours of culture. After that, proliferation of nonneuronal cells was inhibited with 10 μM arabinosyl cytoside and the serum concentration was lowered to 2%. Aβ1-42 (44 μM), in the absence or in the presence of nitrophenols, was added after 48 hours of culture and kept for three days. Control cultures consisting of neurons cultured in growth medium alone or in the presence of residual TFE (0.5% v/v) were also prepared. Daily observations were carried out during this period.
Cell viability in cultures incubated with or without Aβ (as described above) was assessed by trypan blue exclusion. Immediately before counting, the medium was removed, cultures were washed once with PBS and incubated for 5 min with 0.4% trypan blue. Randomly chosen fields were counted in a Zeiss Televal microscope. Percentages of live neurons are expressed relative to the total number of neurons observed in each field. Five independent fields were counted for each experimental condition (which were carried out in triplicate).

Aβ1-42 [5] = target: T2, Aβ1-42; experiment: Disaggregation of fibrillar Aβ1-42 by GdnHCl, light scattering; type: biochemical; settings: Aβ1-42 10 μM, 1 hour incubation
Protocol: as §1
(§2) Stabilities of the fibrillar amyloid aggregates of peptides Aβ1-28, Aβ1-42 and Aβ1-43 in the presence of guanidine hydrochloride were compared. Measurements of the reduction in light scattering intensity as a function of the concentration of guanidine hydrochloride were used as an index of amyloid aggregate dissolution. Samples were incubated for 1 hour in the presence of the indicated concentrations of GdnHCl prior to measurements. Different symbols correspond to Aβ1-28 (□), Aβ1-42 (O) and Aβ1-43 (Δ), and represent averages±S.D. from 3-5 determinations.

Aβ1-28 = target: T3, Aβ1-28 (Homo sapiens, UniProt P05067); experiment: Disaggregation of fibrillar Aβ1-28 by GdnHCl, light scattering; type: biochemical; settings: Aβ1-28 10 μM, 1 hour incubation
T3 construct: purchased Bachem Inc; host or cells: synthetic peptide
T3 sequence (P05067 672-699): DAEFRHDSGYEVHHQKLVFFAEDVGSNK
Protocol: as §1, §2

[6] = aromatic compound concentration 200 micromolar

SMILES: O=[N+]([O-])c1ccc(O)c([N+](=O)[O-])c1 [2,4-dinitrophenol]
- protection against Aβ neurotoxicity (neuron morphology) (hippocampal neurons [1]; 20 μM DNP): marked protection against neurotoxicity
- reduction in the volume of amyloid deposits relative to Aβ injected alone (amyloid deposits): 86±17%
- light scattering from Aβ suspensions (disaggregation of fibrillar amyloid) (Aβ1-42 [2]; DNP 20 μM): completely abolished light scattering
- IC50 (Aβ1-42 [2]): ~7 µM
- inhibition at 200 µM (Aβ1-42 [2]; [6]): 100%
- fibrils seen by electron microscopy (Aβ1-42 [3]; Aβ1-42 22 μM incubated 2 days in PBS with 20 μM DNP): completely devoid of fibrils
- effect of compound alone on survival of neurons in culture (hippocampal neurons [4]; 20 μM DNP): no effects

SMILES: Nc1cc(Cl)ccc1O [2-amino-4-chlorophenol]
- inhibition at 200 µM (Aβ1-42 [2]; [6]): 12%

- inhibition at 200 µM (Aβ1-42 [2]; [6]): 92%
SMILES: Nc1cc([N+](=O)[O-])ccc1O [2-amino-4-nitrophenol]

- inhibition at 200 µM (Aβ1-42 [2]; [6]): 44%
SMILES: Nc1ccc([N+](=O)[O-])cc1O [2-amino-5-nitrophenol]

SMILES: Cc1ccc(O)cc1C [3,4-dimethyl-phenol]
- inhibition at 200 µM (Aβ1-42 [2]; [6]): 40%

SMILES: Nc1cccc(O)c1 [3-amino-phenol]
- inhibition at 200 µM (Aβ1-42 [2]; [6]): 18%

SMILES: O=[N+]([O-])c1cccc(O)c1 [3-nitrophenol]
- protection against Aβ neurotoxicity (neuron morphology) (hippocampal neurons [1]; 100 μM NP): marked protection against neurotoxicity
- IC50 (Aβ1-42 [2]): ~80 µM
- inhibition at 200 µM (Aβ1-42 [2]; [6]): 60%
- fibrils seen by electron microscopy (Aβ1-42 [3]; Aβ1-42 22 μM incubated 2 days in PBS with 100 μM NP): completely devoid of fibrils
- effect of compound alone on survival of neurons in culture (hippocampal neurons [4]; 100 μM NP): no effects

SMILES: COc1ccc(N)cc1 [4-amino-anisole]
- inhibition at 200 µM (Aβ1-42 [2]; [6]): 48%

SMILES: O=[N+]([O-])c1ccc(Br)cc1 [4-bromo-nitrobenzene]
- % decrease in light scattering (Aβ1-42 [2]; [6]): 37%

SMILES: Oc1ccc(Br)cc1 [4-bromo-phenol]
- inhibition at 200 µM (Aβ1-42 [2]; [6]): 25%

SMILES: Oc1ccc(Cl)cc1 [4-chloro-phenol]
- inhibition at 200 µM (Aβ1-42 [2]; [6]): 20%

- inhibition at 200 µM (Aβ1-42 [2]; [6]): 0%
SMILES: CCc1ccc(O)cc1 [4-ethyl-phenol]

SMILES: COc1ccc([N+](=O)[O-])cc1 [4-nitro-anisole]
- inhibition at 200 µM (Aβ1-42 [2]; [6]): 49%

- GdnHCl concentration for full disaggregation (Aβ1-42 [5]): 5 to 6 M
- GdnHCl concentration for complete disaggregation (Aβ1-28): 3 M
SMILES: N=C(N)N [GdnHCl, guanidine hydrochloride]
